Laboratory results taken from publication PMC10016038, “Enhanced Endosomal Signaling and Desensitization of GLP-1R vs GIPR in Pancreatic Beta Cells” (Endocrinology, 2023).

Columns and labels:
[1] = system: calcium response in INS-1 832/3 cells; assay: Calcium assay, INS-1 832/3 cells; type: cell-based, rat; conditions: for Calcium response, net difference between both receptors: INS-1 832/3
Experimental: Imaging of INS-1 832/3 cells or whole-islet Ca^2+ dynamics was performed as follows: cells or Matrigel-encased islets from individual animals were loaded with the Ca^2+ responsive dye Cal-520 AM (AAT Bioquest), pre-incubated for 1 hour in KRBH G6, and imaged in MatTek glass bottom dishes every 6 second at 488 nm using a Nikon Eclipse Ti microscope with an ORCA-Flash 4.0 camera (Hamamatsu) and Metamorph software (Molecular Devices) while maintained at 37 °C on a heated stage. Raw fluorescence intensity traces from cell-occupied areas or islet ROIs were extracted using Fiji. Responses were plotted relative to the average fluorescence intensity during the 6 mM glucose baseline period, before agonist addition.
Figure 7. Functional analysis of GLP-1R vs GIPR signaling in beta cells. […] Data are mean ± SEM, compared by paired t tests; *P < .05; ns, nonsignificant.

SNAP-tagged human GIPR [2] = assay: High-content microscopy internalization, SNAP-GIPR; type: cell-based; conditions: BG-S-S-649, 30 min, 37 °C, respective endogenous agonists, n = 5
Experimental: The assay was performed as previously described ([21]). The INS-1 832/3 SNAP-GLP-1R or SNAP-GIPR cells were seeded into poly-D-lysine-coated, black 96-well plates. On the day of the assay, labeling was performed with BG-S-S-649 (1 µM), a surface-labeling SNAP-tag probe that can be released on application of reducing agents such as Mesna. After washing, treatments were applied for 30 minutes at 37 °C in complete medium. Ligand was removed and cells washed with cold HBSS and placed on ice for subsequent steps. Mesna (100 mM in alkaline TNE buffer, pH 8.6) or alkaline TNE buffer without Mesna was applied for 5 minutes, and then washed with HBSS. Cells were imaged by widefield microscopy, with both epifluorescence and transmitted phase contrast images acquired. On imaging completion, HBSS was removed and replaced with fresh complete medium, and receptor was allowed to recycle for 60 minutes at 37 °C, followed by a second Mesna application to remove any receptor that had recycled to the plasma membrane, with the plate re-imaged as above. Internalized receptor at each time point was determined from cell-containing regions as determined from the phase contrast image using […] ([22]) and used to determine internalization and recycling parameters as previously described ([21]). […]

SNAP-tagged human GIPR [3] = assay: TR-FRET receptor clustering, SNAP-GIPR; type: cell-based; conditions: 100 nM, 37 °C, n = 4
Experimental: The time-resolved fluorescence resonance energy transfer (TR-FRET) assay was performed as previously described ([24]). INS-1 832/3 SNAP-GLP-1R or SNAP-GIPR cells were labeled in suspension with 40 nM SNAP-Lumi4-Tb and 1 mM SNAP-Surface 649 (New England Biolabs, Hitchin, UK) for 1 hour at room temperature in complete medium. […] TR-FRET was quantified as the ratio of fluorescent signal at 665 nm to that at 616 nm, after subtraction of background signal at each wavelength.
Figure 3. GLP-1R vs GIPR clustering propensities in beta cells. […] Diffusion coefficients for individual ROIs are indicated on each image, with corresponding intensity traces, as well as 2D and fitted 3D autocorrelation maps for each ROI, are also depicted. (B) Average RICS diffusion coefficients for each receptor and treatment for each cell analyzed from n = 4 experiments. (C) GLP-1R clustering kinetics measured by TR-FRET in INS-1 832/3 SNAP-GLP-1R cells treated with 100 nM agonist as indicated, with vehicle-corrected AUCs included; n = 4. (D) GIPR clustering kinetics measured by TR-FRET in INS-1 832/3 SNAP-GIPR cells treated with 100 nM agonist as indicated, with vehicle-corrected AUCs included; n = 4. Data are mean ± SEM, compared by one-way ANOVA with Sidak's test; ****P < .0001; ns: non-significant. […] Best readings: GLP-1R Veh i 2.03, ii 1.56, iii 1.44 μm^2/s; GIPR Veh i 0.80, ii 0.34, iii 0.44 μm^2/s. […]

GLP-1R-SmBiT = assay: Mini-G protein/β-arrestin 2 recruitment NanoBiT, GLP-1R; type: cell-based; conditions: 100 nM GLP-1, 30 minutes, n = 5
From the text: Here the SmBiT was cloned in frame at the C-terminus of the GLP-1R and the GIPR by substitution of the Tango sequence on FLAG-tagged GLP-1R-Tango or GIPR-Tango (a gift from Prof. Bryan Roth, University of North Carolina, USA; Addgene plasmids #66291 and #66294), respectively. Mini-Gs, mini-Gq, and mini-Gi plasmids, tagged at the N-terminus with LgBiT, were a gift from Prof. Nevin Lambert, Medical College of Georgia, USA. For β-arrestin 2 recruitment assays, β-arrestin 2 fused at the N-terminus to LgBiT (LgBiT-β-arrestin 2; Promega, plasmid no. CS1603B118) was chosen as it has previously been used successfully with other class B GPCRs. […]
All NanoBiT and NanoBRET readings were obtained in a Flexstation 3 plate reader. […] Readings were normalized to well baseline and then to average vehicle-induced signal to establish the agonist-induced effect. AUCs from response curves were calculated for each agonist concentration and fitted to four-parameter curves using Prism 9 (GraphPad).
Figure 5. […] (A) Kinetics of Gαs, Gαq, Gαi, and β-arrestin 2 recruitment to the GLP-1R assessed by NanoBiT complementation assay in INS-1 832/3 GLP-1R KO cells transiently expressing GLP-1R-SmBiT and the corresponding mini-G protein subtype or β-arrestin 2. […]

Substance: GIP(1-42)
- Calcium response, net difference between both receptors ([1]; Cal-520 AM, 100 nM, n = 4): zero net difference
- Calcium response, GIPR compared with GLP-1R, 0-1 minute ([1]; Cal-520 AM, 100 nM, first minute, n = 4): initial trend for a decreased GIPR compared with GLP-1R response
- Calcium response, GIPR compared with GLP-1R, 1-5 minutes ([1]; Cal-520 AM, 100 nM, following 4 minutes, n = 4): this tendency was reversed
- Calcium response tendency, GIP vs GLP-1, INS-1 832/3 ([1]; summary in discussion): tendency toward increased
- Internalization of GIPR compared with GLP-1R (SNAP-tagged human GIPR [2]): significantly less internalization
- GIPR clustering (SNAP-tagged human GIPR [3]): could not be detected

Substance: GLP-1(7-36)NH2
- Calcium response, net difference between both receptors ([1]; Cal-520 AM, 100 nM, n = 4): zero net difference
- Gαi coupling of GLP-1R (GLP-1R-SmBiT): minimum coupling
- Gαs coupling of GLP-1R (GLP-1R-SmBiT): preferentially coupled to Gαs
- GIPR clustering (SNAP-tagged human GIPR [3]): not detectable
